Reference: patent publication US7723021B2, “Methods for treating lentivirus infections” (The J. David Gladstone Institutes, priority 2003, dated 2010)
Entries after “also recorded” stand apart in the source; their conditions may differ. Residues, ends and D or L forms follow the SMILES beside them. *: point of attachment. Cbz = O=C(OCc1ccccc1)*

Experiments:
[1] = test system: Vif-mediated depletion of APOBEC3G-HA in 293T cells; assay: Proteasome inhibitor panel in 293T cells transiently transfected with APOBEC3G-HA and Vif, immunoblot; type: cell-based; conditions: 12.5 μM, 15 hours
Experimental: 293T cells were transfected with the indicated amounts of expression vector DNA using the calcium phosphate method. Lysis buffers used for immunoblotting were (1) 100-400 mM NaCl, 50 mM Hepes, 0.2% NP40, 0-5 mM EDTA, 0.1 mM PMSF, plus complete protease inhibitor cocktail (Roche)(1 tablet/50 ml buffer) or (2) 50 mM Hepes, pH 7.2, 135 mM NaCl, 1% Triton X-100, 0.5% deoxycholate, 10% glycerol, 1 mM EDTA, 1× protease inhibitor cocktail (Calbiochem). Samples were analyzed using standard SDS-PAGE techniques.
For the proteasome inhibitor experiments in transiently transfected cells, 293T cells were transiently transfected with 0.1 μg of APOBEC3G-HA DNA, 2 μg of control vector DNA and 2 μg of either pcDNA3.1 Vif DNA vector or an additional 2 μg of control vector DNA. Twenty-four hours after transfection, the cells were treated with the indicated inhibitor and harvested 15 hours later. For the proteasome inhibitor experiments using infected H9 cells, H9 cells were infected by spinoculation as described above. Forty-four hours after infection, the cells were treated for 16 hours with either dimethylsulfoxide (DMSO) (0.1%) or 0.25 μM epoxomicin. All of the inhibitors (ALLN, MG132, epoxomicin, Calpain Inhibitor III, and clasto-Lactacystin-β-Lactone) were purchased from CalBiochem and were dissolved in DMSO.
To confirm this finding in a different system, a similar experiment was performed using 293T cells transiently transfected with an APOBEC3G-HA expression vector and either a Vif expression vector or a control vector. Twenty-four hours after transfection the cells were treated with a panel of different proteasome inhibitors for a 15-hour period. It was observed that the broadly acting proteasome inhibitors MG132 (12.5 μM) and ALLN (25 μM) as well as the more specific proteasome inhibitor clasto-Lactacystin-β-Lactone ([…], 20 μM) enhanced the levels of APOBEC3G-HA in the presence of Vif when compared to the diluent control sample (0.1% DMSO) (FIG. 8C, lanes 7 through 12).
FIG. 8A-C. Vif shortens the half-life of APOBEC3G, and proteasome inhibitors partially block the intracellular depletion of APOBEC3G-HA. (A) Pulse-Chase Radiolabeling. HEK 293 cells transiently transfected with APOBEC3G-HA and Vif or control vector DNA were pulse-labeled for 30 min. The initial pulse-labeled (t=0) samples were harvested, and the remaining samples were incubated with chase media for the indicated time points. After immunoprecipitation with anti-HA antibody, the samples were analyzed by SDS-PAGE and the gels were subjected to autoradiography. The relative intensity of the bands were quantified and the Vif (+) and Vif (−) samples were normalized to 1 and graphed (FIG. 8, right side). The T1/2 of APOBEC3G was 1.9 hours in the presence of Vif and 10 hours in the absence of Vif. (B) Proteasome inhibitor studies using infected H9 cells. Mock or HIV-1 wt-infected H9 cells were treated with the broadly active proteasome inhibitor epoxomicin (0.25 μM) or DMSO (0.1%) 44 hours after infection. Sixteen hours following treatment, the cells were harvested; and whole cell lysates were prepared by boiling the cells in Laemmli lysis buffer. Note that Epoxomicin caused an increase in endogenous APOBEC3G levels in the infected sample (compare lane 2 with lane 1). (C) Proteasome inhibitor studies using transiently-transfected 293T cells. Twenty-four hours following transfection of 293T cells with 0.1 μg APOBEC3G and 2 μg Vif or control vector DNA, the cells were treated with the indicated concentration of inhibitor for 15 hours. APOBEC3G-HA levels were elevated in the presence of the proteasome inhibitors MG132, ALLN, and clasto-lactacystin-β-lactone (lanes 8-11), but not in the presence of calpain inhibitor III (lane 12).

[2] = test system: Vif-mediated degradation of APOBEC3G (luc-APOBEC3G); assay: Vif/luc-APOBEC3G HeLa cell line luciferase assay; type: cell-based
Description: The following is one non-limiting example of a suitable assay for identifying agents that reduce Vif-induced degradation of APOBEC3G. Mammalian cells (e.g., an immortalized cell line) are stably transfected with an expression vector that includes a coding sequence for a luciferase-APOBEC3G fusion protein, such that the cells synthesize the luciferase-APOBEC3G (luc-APOBEC3G) fusion protein. A substrate for luciferase is provided in the cell medium, such that the substrate enters the cell, and is acted on by the luciferase portion of the luciferase-APOBEC3G to yield a luminescent product. The level of luciferase in the cell is detected using a luminometer, and the level of luc-APOBEC3G is expressed as relative light units. The cells are transfected with an expression vector that includes a coding sequence for Vif to yield a Vif/luc-APOBEC3G cell. Because Vif induces degradation of luc-APOBEC3G, the presence of Vif protein in the Vif/luc-APOBEC3G cell reduces the level of luc-APOBEC3G, compared to the level of luc-APOBEC3G in the absence of Vif. When the Vif/luc-APOBEC3G cell is contacted with a test agent that reduces Vif-induced APOBEC3G degradation, the level of luc-APOBEC3G increases relative to the level of luc-APOBEC3G in the Vif/luc-APOBEC3G cell in the absence of the test agent.
Several cell lines were constructed that could serve as the basis for a high-throughput assay for inhibitors of HIV-1 Vif action. The cell lines produce Vif and an APOBEC3G fusion protein composed of APOBEC3G fused to a heterologous protein that provides a detectable signal. One such cell line was constructed as follows. HeLa cells were co-transfected with both a Vif expression vector and a vector expressing APOBEC3G tagged with renilla-luciferase (luc-APOBEC3G), to generate a Vif/luc-APOBEC3G cell line. […]
The Vif/luc-APOBEC3G cell line was treated with the proteasome inhibitor MG132, an agent capable of blocking Vif-mediated degradation of APOBEC3G, and the cells were subsequently lysed. […] The level of luc-APOBEC3G was expressed as relative light units (RLU). […]

## CC(C)C[C@@H](C=O)NC(=O)[C@H](CC(C)C)NC(=O)[C@H](CC(C)C)NC(=O)OCc1ccccc1 [MG132] (Cbz-Leu-Leu-Leu-aldehyde)
[1]
  levels of APOBEC3G-HA in the presence of Vif compared to diluent control (0.1% DMSO): enhanced; also recorded: elevated
[2]; Vif/luc-APOBEC3G cells
  Vif-caused reduction in the level of luc-APOBEC3G protein: reversed
  reduction of RLU in the absence of the proteasome inhibitor relative to MG132-treated cells: approximately 20 fold
[2]; Vif/luc-APOBEC3G cells treated with MG132
  level of luc-APOBEC3G in cell lysate: 203333 RLU
